Data as given in PubChem BioAssay (NCI).
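Where inhibition never reached the appropriate level, the endpoint shown equals the highest concentration tested. Otherwise, values were interpolated linearly from a five-concentration, 48-hour dose response in 96-well plates. TGI marks complete inhibition of growth.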

How the values were obtained:
Experiment in all cases: growth of human tumour cells (NCI), 48 h
786-0 renal = system: 786-0 renal
NCI-H460 lung = system: NCI-H460 lung
SNB-19 CNS = system: SNB-19 CNS
NCI-H226 lung = system: NCI-H226 lung
MCF7 breast = system: MCF7 breast
UACC-257 melanoma = system: UACC-257 melanoma
OVCAR-3 ovarian = system: OVCAR-3 ovarian
LOX IMVI melanoma = system: LOX IMVI melanoma
MDA-MB-231 breast = system: MDA-MB-231 breast
SK-MEL-5 melanoma = system: SK-MEL-5 melanoma
HT29 colon = system: HT29 colon
M14 melanoma = system: M14 melanoma
HCT-116 colon = system: HCT-116 colon
BT-549 breast = system: BT-549 breast
COLO 205 colon = system: COLO 205 colon
NCI-H522 lung = system: NCI-H522 lung
MOLT-4 leukemia = system: MOLT-4 leukemia
SF-268 CNS = system: SF-268 CNS
KM12 colon = system: KM12 colon
M19-MEL melanoma = system: M19-MEL melanoma

SMILES: C/C(=N\N)C(CN1CCOCC1)C(c1ccccc1)c1c(O)c2ccccc2oc1=O (stereo not given)
- TGI (786-0 renal): > 100 µM
- TGI (NCI-H460 lung): > 100 µM
- TGI (SNB-19 CNS): > 100 µM
- TGI (NCI-H226 lung): > 100 µM
- TGI (MCF7 breast): > 100 µM
- TGI (UACC-257 melanoma): > 100 µM
- TGI (OVCAR-3 ovarian): > 100 µM
- TGI (LOX IMVI melanoma): > 31.6 µM
- TGI (MDA-MB-231 breast): > 100 µM
- TGI (SK-MEL-5 melanoma): > 100 µM
- TGI (HT29 colon): > 100 µM
- TGI (M14 melanoma): > 100 µM
- TGI (HCT-116 colon): > 100 µM
- TGI (BT-549 breast): > 100 µM
- TGI (COLO 205 colon): > 63.5 µM
- TGI (NCI-H522 lung): > 100 µM
- TGI (MOLT-4 leukemia): > 80.8 µM
- TGI (SF-268 CNS): > 100 µM
- TGI (KM12 colon): > 100 µM
- TGI (M19-MEL melanoma): > 100 µM
